In patent US8455451B2, “2'-fluoro substituted carba-nucleoside analogs for antiviral treatment” (Gilead Sciences, Inc., priority 2009, dated 2013):
Read-outs that look alike come from different tables or passages of the source.

Experiments:
[1] = system: HCV replicon cells; assay: HCV EC50 determination, replicon luciferase assay; assay type: cell-based; details: Hepatitis C virus, 72 h
Protocol: Replicon cells were seeded in 96-well plates at a density of 8×10^3 cells per well in 100 μL of culture medium, excluding Geneticin. Compound was serially diluted in 100% DMSO and then added to the cells at a 1:200 dilution, achieving a final concentration of 0.5% DMSO and a total volume of 200 μL. Plates were incubated at 37° C. for 3 days, after which culture medium was removed and cells were lysed in lysis buffer provided by Promega's luciferase assay system. Following the manufacturer's instruction, 100 μL of luciferase substrate was added to the lysed cells and luciferase activity was measured in a TopCount luminometer.

[2] = target: T1, S282T mutant HCV Δ21 NS5b polymerase (Hepatitis C virus genotype 1b, UniProt Q9WMX2, S2701T); assay: biochemical; details: for fold shift (S282T IC50 vs WT IC50): Note of Table II
T1 construct: 75 nM HCV Δ21 NS5b polymerase
Protocol: (§1) Assay Protocol: Either wild type or S282T (Migliaccio, et al, J. Biol. Chem. 2003, 49164-49170; Klumpp, et al., J. Biol. Chem. 2006, 3793-3799) mutant polymerase enzyme was used in this assay. NS5b polymerase assay (40 μL) was assembled by adding 28 μL, polymerase mixture (final concentration: 50 mM Tris-HCl at pH 7.5, 10 mM KCL, 5 mM MgCl2, 1 mM DTT, 10 mM EDTA, 4 ng/μL of RNA template, and 75 nM HCV Δ21 NS5b polymerase) to assay plates followed by 4 μL of compound dilution. The polymerase and compound were pre-incubated at 35° C. for 10 minute before the addition of 8 μL of nucleotide substrate mixture (33P-α-labeled competing nucleotide at KM and 0.5 mM of the remaining three nucleotides). The assay plates were covered and incubated at 35° C. for 90 min. Reactions were then filtered through 96-well DEAE-81 filter plates via vacuum. The filter plates were then washed under vacuum with multiple volumes of 0.125 M NaHPO4, water, and ethanol to remove unincorporated label. Plates were then counted on TopCount to assess the level of product synthesis over background controls. The IC50 value is determined using Prism fitting program.

[3] = target: T2, wild type HCV Δ21 NS5b polymerase (Hepatitis C virus genotype 1b, UniProt Q9WMX2); details: read-out: WT IC50, value taken from the source in the Note column; cited from earlier work
T2 construct: 75 nM HCV Δ21 NS5b polymerase

[4] = target: T1, S282T mutant HCV Δ21 NS5b polymerase; details: value taken from the source in the Note column; cited from earlier work
[5] = target: T2, wild type HCV Δ21 NS5b polymerase; assay: HCV IC50 determination, NS5b polymerase assay, wild type enzyme; assay type: biochemical
Protocol: as §1

[6] = system: Huh-luc/neo replicon cells; assay: Metabolism study: intracellular triphosphate analog concentration; assay type: in vitro ADME; details: PD-A-8b to TP-8a versus B-7 to TP-3, Huh-luc/neo replicon cells
Source text: Applicants have observed that monophosphate prodrugs of nucleoside analogs with a nitrogen at the X^1 position can have enhanced activity over their counterparts with a carbon at the X^1 position. This difference in activity correlates to the amount of the active triphosphate analogs of the compounds in cells. This can be quantified by a metabolism study which quantifies the intracellular concentration of the triphosphate analogs. The higher intracellular concentration of the triphosphate metabolite correlates to the prodrug with enhanced activity.
Huh-luc/neo replicon cells containing HCV genotype 1b subgenomic replicons were maintained in Dulbecco's modified eagle medium containing glutamax supplemented with 10% heat inactivated fetal bovine serum, penicillin-streptomycin, and G418 disulphate salt solution. Cells were transferred to twelve well tissue culture plates by trypsonization and grown to confluency (0.88×10^6 cells/well). Cells were treated for 24 hours with 10 μM nucleoside, or 10 μM prodrug. After 24 hours, cells were washed 2 times with 2.0 mL ice cold 0.9% sodium chloride saline. […] Intracellular levels of the nucleoside triphosphates were quantified based on authentic standard curves by liquid chromatography coupled to tandem mass spectrometry.

[7] = replicon cells, 3 days incubation, luciferase readout, read-out: EC50

| Structure (SMILES) | EC50 [1, 7] [µM] | other results |
| --- | --- | --- |
| CCC(CC)COC(=O)C(C)(C)NP(=O)(OC[C@H]1O[C@@](C#N)(c2ccc3c(N)ncnn23)[C@](C)(F)[C@@H]1O)Oc1ccccc1 (stereo partly shown) [Compound B-4] | 8.4 to 19 |  |
| CCOC(=O)[C@H](C)NP(=O)(OC[C@H]1O[C@@](C#N)(c2ccc3c(N)ncnn23)[C@](C)(F)[C@@H]1O)Oc1cccc2ccccc12 (stereo partly shown) [Compound B-6] | 3.75 to 11.1 |  |
| CC(C)OC(=O)OCOP(=O)(OCOC(=O)OC(C)C)OC[C@H]1O[C@@](C#N)(c2ccc3c(N)ncnn23)[C@](C)(F)[C@@H]1O [Compound 10] | 6.5 to 8 |  |
| C[C@@]1(O)[C@H](O)[C@@H](COP(=O)(O)OP(=O)(O)OP(=O)(O)O)O[C@@]1(C#N)c1ccc2c(N)ncnn12 [triphosphate of (2R,3R,4R,5R)-2-(4-aminopyrrolo[1,2-f][1,2,4]triazin-7-yl)-3,4-dihydroxy-5-(hydroxymethyl)-3-methyl-tetrahydrofuran-2-carbonitrile] |  | fold shift (S282T IC50 vs WT IC50) [2]: WO/2009/132135 (242 fold shift); IC50 [3]: 0.525 µM; IC50 [4]: 111 µM |
| C[C@@]1(F)[C@H](O)[C@@H](COP(=O)(O)OP(=O)(O)OP(=O)(O)O)O[C@H]1c1ccc2c(N)ncnn12 |  | IC50 [5]: 0.034 µM |
| CCOC(=O)[C@H](CCSC)NP(=O)(OC[C@H]1O[C@@](C#N)(c2ccc3c(N)ncnn23)[C@](C)(F)[C@@H]1O)Oc1ccccc1 (stereo partly shown) [Compound C-2] | 3.9 to 12 |  |
| CCOC(=O)[C@H](C)NP(=O)(OC[C@H]1O[C@@H](c2cnc3c(N)ncnn23)[C@](C)(F)[C@@H]1O)Oc1ccccc1 (stereo partly shown) [PD-A-8b] | 0.68 | efficiency of activation of prodrug to its triphosphate analog, compared with B-7 [6]: more than two orders of magnitude more efficient |
| CCOC(=O)[C@H](C)NP(=O)(OC[C@H]1O[C@@H](c2ccc3c(N)ncnn23)[C@](C)(F)[C@@H]1O)Oc1cccc2ccccc12 (stereo partly shown) [Compound B-8] | 35 to 60 |  |
| CCOC(=O)[C@H](Cc1ccccc1)NP(=O)(OC[C@H]1O[C@@](C#N)(c2ccc3c(N)ncnn23)[C@](C)(F)[C@@H]1O)Oc1ccccc1 (stereo partly shown) [Compound C-4] | 9.8 to 31 |  |
| CCOC(=O)[C@H](C)NP(=O)(OC[C@H]1O[C@@H](c2ccc3c(N)ncnn23)[C@](C)(F)[C@@H]1O)Oc1ccccc1 (stereo partly shown) [Compound B-7] | 63 to 73 |  |
| CCOC(=O)[C@@H]1CCCN1P(=O)(OC[C@H]1O[C@@](C#N)(c2ccc3c(N)ncnn23)[C@](C)(F)[C@@H]1O)Oc1ccccc1 (stereo partly shown) [Compound C-5] |  | EC50 [1]: 24 to 28 µM |
| CC(C)OP1(=O)OC[C@H]2O[C@@](C#N)(c3ccc4c(N)ncnn34)[C@](C)(F)[C@@H]2O1 (stereo partly shown) [Compound 24] | 40.3 to 70.5 |  |
| C[C@@]1(F)[C@H](O)[C@@H](COP(=O)(O)NCCc2c[nH]c3ccccc23)O[C@@]1(C#N)c1ccc2c(N)ncnn12 [Compound 22] | 31 to 45 |  |
| CCOC(=O)[C@H](Cc1c[nH]c2ccccc12)NP(=O)(OC[C@H]1O[C@@](C#N)(c2ccc3c(N)ncnn23)[C@](C)(F)[C@@H]1O)Oc1ccccc1 (stereo partly shown) [Compound C-3] | 43 to 84 |  |
| CCOC(=O)CNP(=O)(OC[C@H]1O[C@@](C#N)(c2ccc3c(N)ncnn23)[C@](C)(F)[C@@H]1O)Oc1ccccc1 (stereo partly shown) [Compound B-5] | 1.93 to 25.5 |  |
| CCOC(=O)[C@H](C)NP(=O)(OC[C@H]1O[C@@](C#N)(c2ccc3c(N)ncnn23)[C@](C)(F)[C@@H]1O)Oc1ccccc1 (stereo partly shown) [Compound B-1] | 1.4 to 4.3 |  |
| C[C@@]1(F)[C@@H]2OP(=O)(O)OC[C@H]2O[C@@]1(C#N)c1ccc2c(N)ncnn12 [Compound 23] | 39.4 to 40.3 |  |
| CC(C)OC(=O)[C@H](C)NP(=O)(OC[C@H]1O[C@@](C#N)(c2ccc3c(N)ncnn23)[C@](C)(F)[C@@H]1O)Oc1ccccc1 (stereo partly shown) [Compound B-3] | 16 to 28 |  |
| C[C@@]1(F)[C@H](O)[C@@H](COP(=O)(O)OP(=O)(O)OP(=O)(O)O)O[C@@]1(C#N)c1ccc2c(N)ncnn12 [TP-2] |  | IC50 [5]: 0.24 µM; IC50 [2]: 1.6 µM; fold shift (S282T IC50 vs WT IC50) [2]: (7 fold shift) |
| C[C@@]1(F)[C@H](O)[C@@H](COP(=O)(O)OP(=O)(O)OP(=O)(O)O)O[C@H]1c1cnc2c(N)ncnn12 |  | IC50 [5]: 0.3 µM; IC50 [2]: 1.6 µM; fold shift (S282T IC50 vs WT IC50) [2]: (5.3 fold shift) |
| CCOC(=O)[C@H](CCS(C)(=O)=O)NP(=O)(OC[C@H]1O[C@@](C#N)(c2ccc3c(N)ncnn23)[C@](C)(F)[C@@H]1O)Oc1ccccc1 (stereo partly shown) [Compound C-6] | 11 |  |
| CCOC(=O)[C@@H](NP(=O)(OC[C@H]1O[C@@](C#N)(c2ccc3c(N)ncnn23)[C@](C)(F)[C@@H]1O)Oc1ccccc1)C(C)C (stereo partly shown) [Compound C-1] | 67 to 70 |  |
| CCCCCCCOC(=O)[C@H](C)NP1(=O)OC[C@H]2O[C@@](C#N)(c3ccc4c(N)ncnn34)[C@](C)(F)[C@@H]2O1 (stereo partly shown) [Compound 25] | 9.7 to 10 |  |
| C[C@@]1(F)[C@H](O)[C@@H](COP(=O)(O)OP(=O)(O)OP(=O)(O)O)O[C@H]1c1cnc2c(=O)[nH]c(N)nn12 [TP-1] |  | IC50 [5]: 0.15 µM; IC50 [2]: 0.15 µM; fold shift (S282T IC50 vs WT IC50) [2]: (1 fold shift) |
| CC(C)(C)C(=O)SCCOP(=O)(OCCSC(=O)C(C)(C)C)OC[C@H]1O[C@@H](c2cnc3c(N)nc(N)nn23)[C@](C)(F)[C@@H]1O [Compound A-1] | 23 |  |
